15 molecules from publication PMC8634879, “Design, Synthesis, and Biological Evaluation of Pyrano[2,3-c]-pyrazole–Based RalA Inhibitors Against Hepatocellular Carcinoma” (Frontiers in Chemistry, 2021) can be followed below.

Data set [1] deals with T1, RalB (Homo sapiens, UniProt P11234).
T1 construct: expressed in transfected cells; host or cells: HepG2 (from b6; the methods paragraph names no cell line)
T1 sequence (P11234 1-203 limits assumed): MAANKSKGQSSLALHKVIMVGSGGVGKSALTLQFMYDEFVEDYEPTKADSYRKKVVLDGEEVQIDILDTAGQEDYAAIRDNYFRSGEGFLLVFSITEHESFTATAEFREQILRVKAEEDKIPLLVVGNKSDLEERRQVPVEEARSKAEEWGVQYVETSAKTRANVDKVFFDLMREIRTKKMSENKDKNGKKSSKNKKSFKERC
The data set can be described thus: ELISA-based RalB activity assay (RalBP1-coated plates, lysates of compound-treated cells). The note with it: 1 μM compound; % control = active (RalBP1-bound) RalB remaining. It is filed as biochemical. On the procedure:
(§1) The in vitro RalA/B bioactivity assays were performed following methods outlined in previous reports. ([Yan et al., 2016]; [Zhang et al., 2018]; [Walsh et al., 2019]; [Bum-Erdene et al., 2020]). In brief, the lysates of the test compound or vehicle-treated cells were cleared using cold centrifugation, and supernatants were collected. An RalBP1 solution was added to 96-well plates and incubated for 1–2 h, and then the plates were washed thrice using ELISA buffer. Next, cellular lysates were added, and samples were incubated overnight at 4°C. Then, ice-cold mouse anti-FLAG antibody was added, and samples were incubated for one more hour. After subsequent washing with ELISA buffer thrice, the HRP-conjugated anti-mouse antibody was added, and samples were incubated for another hour. Then, the HRP substrate was added. Antigen–antibody reactions were quenched by the addition of sulfuric acid (2 mol/L). Remaining RalA/B was detected by the OD450 values which were collected by using a plate reader. Cell proliferation assays, colony formation assays, apoptosis assays, GST pulldown, and Western blotting were used following methods outlined in our previous reports. ([Zhou et al., 2015]; [Zhang et al., 2016]; [Yang et al., 2017]; [He et al., 2019]). Autophagy levels and protein immunoblotting were used following the methods mentioned in our previous reports ([Pan et al., 2018]; [Wang et al., 2018]; [Hao et al., 2019]; [Wang et al., 2019]; [Peng et al., 2020]). Detailed experimental procedures are described in supporting materials.

The test system of data set [2] is Huh-7 cells. The data set can be described thus: Cell proliferation assay (MTT), Huh-7. The class given is cell-based. The following applies: Homo sapiens, Table 1, cell proliferation inhibition, read-out: IC50 (μM) Huh7. Here is the method:
(§2) The antibodies recognizing LC3, p62/SQSTM1, RalA, RalB, and GAPDH were purchased from Proteintech (Wuhan, China). HCC cell lines, including HepG2, Hep3B, Huh-7, and SMMC-7721, were obtained from the Chinese Center for Type Culture Collection (Wuhan, China) and cultured in DMEM (Dulbecco’s modified Eagle’s medium) with 10% FBS (fetal bovine serum) and streptomycin. Cytotoxicity assays were performed by using the MTT method as previously described.
as §1

The target in data set [3] is T2, RalA (Homo sapiens, UniProt P11233).
T2 construct: expressed in transfected cells; host or cells: HepG2 (from b6; the methods paragraph names no cell line)
T2 sequence (P11233 1-203 limits assumed): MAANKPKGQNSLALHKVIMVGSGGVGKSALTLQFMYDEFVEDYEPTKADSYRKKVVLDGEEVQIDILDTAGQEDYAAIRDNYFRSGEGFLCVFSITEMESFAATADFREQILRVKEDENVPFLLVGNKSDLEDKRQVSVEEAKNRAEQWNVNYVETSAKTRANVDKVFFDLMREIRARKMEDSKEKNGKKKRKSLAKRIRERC
The data set can be described thus: ELISA-based RalA activity assay (RalBP1-coated plates, lysates of compound-treated cells). The class given is biochemical. The note with it: 1 μM compound; % control = activity remained. Here is the method:
as §1

Data set [4] has as its system HepG2 cells. Nature of the data set: Cell proliferation assay (MTT), HepG2. It is filed as cell-based. The following applies: Homo sapiens, HepG2, Table 1, cell proliferation inhibition; read-out: IC50 (μM) HepG2. Here is the method: as §2, §1

With `Cc1ccc(S(=O)(=O)NC2=C(C#N)C(c3ccncc3)c3c(C)nn(-c4ccccc4Cl)c3O2)cc1` (stereo not drawn) [4u, N-(1-(2-chlorophenyl)-5-cyano-3-methyl-4-(pyridin-4-yl)-1,4-dihydropyrano[2,3-c]-pyrazol-6-yl)-4-methylbenzenesulfonamide], the melting point lay within 79 to 80 °C. The remaining activity at 1 µM in data set [1] was 50%. In addition, the IC50 in data set [2] was above 10 µM. Further, in data set [3], the remaining activity at 1 µM was 44%. In addition, the half-maximal inhibitory concentration (IC50) in data set [4] was determined as 8.71 ± 0.74 µM.

`Cc1ccc(S(=O)(=O)NC2=C(C#N)C(c3ccco3)c3c(C)nn(-c4ccccc4Cl)c3O2)cc1` (stereo not drawn) [4s, N-(1-(2-chlorophenyl)-5-cyano-4-(furan-2-yl)-3-methyl-1,4-dihydropyrano[2,3-c]-pyrazol-6-yl)-4-methylbenzenesulfonamide] had a melting point of 62.5 to 63.9 °C. The remaining activity at 1 µM in data set [1] amounted to 72%. For the same molecule, the IC50 in data set [2] is above 10 µM. Moreover, in data set [3], the remaining activity at 1 µM was determined as 48%. Moreover, the half-maximal inhibitory concentration (IC50) in data set [4] is 9.89 ± 0.81 µM.

In turn, `Cc1ccc(-n2nc(C)c3c2OC(NS(=O)(=O)c2ccc(C)cc2)=C(C#N)C3c2ccccc2)cc1` (stereo not drawn) [4ae, N-(5-cyano-3-methyl-4-phenyl-1-(p-tolyl)-1,4-dihydro-pyrano[2,3-c]-pyrazol-6-yl)-4-methylbenzenesulfonamide] had a melting point of 142.5 to 143 °C. In addition, the remaining activity at 1 µM in data set [1] worked out at 78%. For the same molecule, in data set [2], the 50% inhibitory concentration (IC50) was above 10 µM. In addition, the remaining activity at 1 µM in data set [3] stood at 79%. The half-inhibitory concentration (IC50) in data set [4] is above 10 µM.

`Cc1ccc(C2C(C#N)=C(NS(=O)(=O)c3ccc(C)cc3)Oc3c2c(C)nn3-c2ccccc2)cc1` (stereo not drawn) [4b, N-(5-cyano-3-methyl-1-phenyl-4-(p-tolyl)-1,4-dihydropyrano[2,3-c]-pyrazol-6-yl)-4-methylbenzenesulfonamide] displayed a melting point of 74.7 to 75 °C. For the same molecule, in data set [1], the remaining activity at 1 µM came out at 105%. Moreover, the IC50 in data set [2] was above 10 µM. Further, the remaining activity at 1 µM in data set [3] is 75%. Also, in data set [4], the IC50 is above 10 µM.

The molecule `Cc1ccc(S(=O)(=O)NC2=C(C#N)C(c3ccc(Br)cc3)c3c(C)nn(-c4ccccc4)c3O2)cc1` (stereo not drawn) [4d, N-(4-(4-bromophenyl)-5-cyano-3-methyl-1-phenyl-1,4-dihydropyrano[2,3-c]-pyrazol-6-yl)-4-methylbenzenesulfonamide] had a melting point of 101.6 to 102.3 °C. In addition, in data set [1], the remaining activity at 1 µM stood at 89%. Moreover, the IC50 in data set [2] was above 10 µM. Besides, the remaining activity at 1 µM in data set [3] came to 77%. For the same molecule, the half-inhibitory concentration (IC50) in data set [4] was above 10 µM.

Regarding `COc1cccc(C2C(C#N)=C(NS(=O)(=O)c3ccccc3)Oc3c2c(C)nn3-c2ccccc2Cl)c1` (stereo not drawn) [4x, N-(1-(2-chlorophenyl)-5-cyano-4-(3-methoxyphenyl)-3-methyl-1,4-dihydropyrano[2,3-c]-pyrazol-6-yl)benzenesulfonamide], the melting point lay in the range of 66 to 67.5 °C. The remaining activity at 1 µM in data set [1] was determined as 58%. Besides, the IC50 in data set [2] worked out at 8.93 ± 1.02 µM. Besides, the remaining activity at 1 µM in data set [3] amounted to 59%. Also, the IC50 in data set [4] is above 10 µM.

The molecule `Cc1ccc(S(=O)(=O)NC2=C(C#N)C(c3ccco3)c3c(C)nn(-c4ccccc4)c3O2)cc1` (stereo not drawn) [4j, N-(5-cyano-4-(furan-2-yl)-3-methyl-1-phenyl-1,4-dihydropyrano[2,3-c]-pyrazol-6-yl)-4-methylbenzenesulfonamide] returned a melting point of 153.8 to 154.3 °C. Moreover, the remaining activity at 1 µM in data set [1] was determined as 70%. Further, the 50% inhibitory concentration (IC50) in data set [2] was 9.94 ± 1.23 µM. In data set [3], the remaining activity at 1 µM worked out at 57%. For the same molecule, in data set [4], the IC50 was determined as 9.57 ± 1.05 µM.

For `COc1cccc(C2C(C#N)=C(NS(=O)(=O)c3ccc(C)cc3)Oc3c2c(C)nn3-c2ccccc2Cl)c1` (stereo not drawn) [4w, N-(1-(2-chlorophenyl)-5-cyano-4-(3-methoxyphenyl)-3-methyl-1,4-dihydropyrano[2,3-c]-pyrazol-6-yl)-4-methylbenzenesulfonamide], the melting point is 66.4 to 67.7 °C. Also, in data set [1], the remaining activity at 1 µM amounted to 69%. Further, the IC50 in data set [2] is above 10 µM. Besides, in data set [3], the remaining activity at 1 µM was determined as 51%. Besides, the half-maximal inhibitory concentration (IC50) in data set [4] is 8.87 ± 0.95 µM.

In turn, `Cc1ccc(S(=O)(=O)NC2=C(C#N)C(c3ccc(Br)cc3F)c3c(C)nn(-c4ccccc4)c3O2)cc1` (stereo not drawn) [4h, N-(4-(4-bromo-2-fluorophenyl)-5-cyano-3-methyl-1-phen-yl-1,4-dihydropyrano[2,3-c]-pyrazol-6-yl)-4-methylbenzenesulfonamide] displayed a melting point of 73.6 to 77.4 °C. Further, the remaining activity at 1 µM in data set [1] is 83%. In data set [2], the IC50 is above 10 µM. Also, the remaining activity at 1 µM in data set [3] amounted to 70%. Moreover, in data set [4], the concentration for half-maximal inhibition (IC50) was above 10 µM.

For `Cc1ccc(S(=O)(=O)NC2=C(C#N)C(c3ccsc3)c3c(C)nn(-c4ccccc4Cl)c3O2)cc1` (stereo not drawn) [4v, N-(1-(2-chlorophenyl)-5-cyano-3-methyl-4-(thiophen-3-yl)-1,4-dihydropyrano[2,3-c]-pyrazol-6-yl)-4-methylbenzenesulfonamide], the melting point was 67.4 to 68.8 °C. The remaining activity at 1 µM in data set [1] was found to be 78%. Besides, the half-inhibitory concentration (IC50) in data set [2] was above 10 µM. In data set [3], the remaining activity at 1 µM came to 56%. Also, the concentration for half-maximal inhibition (IC50) in data set [4] was above 10 µM.

`Cc1ccc(S(=O)(=O)NC2=C(C#N)C(c3cccc(Cl)c3)c3c(C)nn(-c4ccccc4)c3O2)cc1` (stereo not drawn) [4c, N-(4-(3-chlorophenyl)-5-cyano-3-methyl-1-phenyl-1,4-dihydropyrano[2,3-c]-pyrazol-6-yl)-4-methylbenzenesulfonamide] yielded a melting point of 68.4 to 69 °C. Further, the remaining activity at 1 µM in data set [1] came out at 69%. Besides, the IC50 in data set [2] was above 10 µM. The remaining activity at 1 µM in data set [3] amounted to 40%. Besides, the half-inhibitory concentration (IC50) in data set [4] stood at 7.28 ± 0.64 µM.

For `Cc1ccc(S(=O)(=O)NC2=C(C#N)C(c3ccccc3)c3c(C)nn(-c4ccc(Cl)cc4)c3O2)cc1` (stereo not drawn) [4ac, N-(1-(4-chlorophenyl)-5-cyano-3-methyl-4-phenyl-1,4-dihydropyrano[2,3-c]-pyrazol-6-yl)-4-methylbenzenesulfonamide], the melting point is 181.4 to 181.7 °C. In data set [1], the remaining activity at 1 µM worked out at 68%. Moreover, in data set [2], the IC50 was above 10 µM. In addition, in data set [3], the remaining activity at 1 µM was found to be 67%. In addition, the IC50 in data set [4] was above 10 µM.

`Cc1ccc(S(=O)(=O)NC2=C(C#N)C(c3cccc(Br)c3)c3c(C)nn(-c4ccccc4)c3O2)cc1` (stereo not drawn) [4f, N-(4-(3-bromophenyl)-5-cyano-3-methyl-1-phenyl-1,4-dihydropyrano[2,3-c]-pyrazol-6-yl)-4-methylbenzenesulfonamide]: the melting point fell in the range of 68.4 to 69.5 °C. In addition, the remaining activity at 1 µM in data set [1] amounted to 71%. The IC50 in data set [2] is above 10 µM. Also, the remaining activity at 1 µM in data set [3] came to 47%. In data set [4], the IC50 amounted to 8.83 ± 0.75 µM.

`COc1ccc(C2C(C#N)=C(NS(=O)(=O)c3ccc(C)cc3)Oc3c2c(C)nn3-c2ccccc2)cc1` (stereo not drawn) [4i, N-(5-cyano-4-(4-methoxyphenyl)-3-methyl-1-phenyl-1,4-dihydropyrano[2,3-c]-pyrazol-6-yl)-4-methylbenzenesulfonamide] registered a melting point of 145.2 to 146 °C. Besides, in data set [1], the remaining activity at 1 µM is 60%. In addition, in data set [2], the half-inhibitory concentration (IC50) is above 10 µM. Moreover, in data set [3], the remaining activity at 1 µM was 69%. Besides, the half-inhibitory concentration (IC50) in data set [4] is above 10 µM.

For the molecule `Cc1ccc(S(=O)(=O)NC2=C(C#N)C(c3ccc(F)cc3)c3c(C)nn(-c4ccccc4)c3O2)cc1` (stereo not drawn) [4e, N-(5-cyano-4-(4-fluorophenyl)-3-methyl-1-phenyl-1,4-dihydropyrano[2,3-c]-pyrazol-6-yl)-4-methylbenzenesulfonamide], the melting point lay within 113 to 113.5 °C. In addition, the remaining activity at 1 µM in data set [1] is 76%. Besides, the concentration for half-maximal inhibition (IC50) in data set [2] is above 10 µM. The remaining activity at 1 µM in data set [3] is 74%. Besides, in data set [4], the concentration for half-maximal inhibition (IC50) is above 10 µM.
